In ChEMBL document CHEMBL1221225, “A small molecule that directs differentiation of human ESCs into the pancreatic lineage” (Nat Chem Biol, 2009) one finds inhibition data, which are given here for 2 compounds.

What all share (type): cell-based
A short description of test [1]: Activation of PKC signaling in human HUES8 definitive endoderm cells assessed as increase in Pdx1-expressing cells at 14 nM after 4 days by immunocytochemistry (reference value: 2.8+/-0.6%).
The nature of test [2]: Activation of PKC signaling in human HUES8 cells assessed as increase in Pdx1-expressing cells at 14 nM after 4 days by immunocytochemistry pregrown in medium with Wnt3a, activin A, FGF10, KAAD-cyclopamine and retinoic acid relative to ILV treated cells.
Test [3] is described as follows: Activation of PKC signaling in human HUES8 definitive endoderm cells assessed as increase in Pdx1-expressing cells at 500 nM after 4 days by immunocytochemistry (reference value: 2.8+/-0.6%).
Test [4] in a line: Activation of PKC signaling in human HUES8 cells assessed as increase in Pdx1-expressing cells at 500 nM after 4 days by immunocytochemistry pregrown in medium with Wnt3a, activin A, FGF10, KAAD-cyclopamine and retinoic acid relative to ILV treated cells.

For orientation: inhibition means the drop in the measured response relative to a control, in per cent.

Turning to `CCCCCCCCCCCCCC(=O)O[C@@H]1[C@@H](C)[C@@]2(O)[C@@H](C=C(CO)C[C@]3(O)C(=O)C(C)=C[C@@H]23)[C@@H]2C(C)(C)[C@]12OC(C)=O`, the inhibition in test [1] came out at 18.3%; in test [2], 21.3%.
As to `CC(C)[C@H]1C(=O)N[C@H](CO)Cc2cc(NC(=O)/C=C/C=C/c3ccc(C(F)(F)F)cc3)ccc2N1C`, the inhibition in test [3] was determined as 12.2%; in test [4], 15.4%.
